For data set [1], the target named is T1, HpAgD (Helicobacter pylori, UniProt O24890). Nature of the data set: Determination of IC50 values against HpAgD. In kind it is biochemical. The settings on record: for inhibition of HpAgD: concentrations as high as 500 μM.
Data set [2] addresses T1, HpAgD. Nature of the data set: Irreversibility of inactivation. The settings on record: 1.0 mM inhibitor, 1 h at 37 °C, dialyzed 20 h. The class given is biochemical.
Data set [3] in a line: Stability in aqueous buffer. The class given is physicochemical. The settings on record: not shown.
Data set [4] deals with T1, HpAgD. As to the kind of experiment: Inactivation kinetics of HpAgD. The class given is biochemical.
In data set [5] the target is T1, HpAgD. As to the kind of experiment: Site of inactivator modification. The settings on record: 5 eq. inactivator, 30 min, tryptic digest.
Data set [6] concerns the target T1, HpAgD. Nature of the data set: Substrate protection experiments. The settings on record: agmatine 0.5 vs 1.0 mM; ABFA 500 μM or ABCA 175 μM. In kind it is biochemical.
The next data set has as its target PAD4 (Homo sapiens, UniProt Q9UM07). Nature of the data set: PAD4 inhibition. In kind it is biochemical. The settings on record: for inhibition of PAD4: concentrations as high as 1 mM.
For a further data set, the target named is T2, Wild Type HpAgD (Helicobacter pylori, UniProt O24890).
T2 sequence (O24890 1-330): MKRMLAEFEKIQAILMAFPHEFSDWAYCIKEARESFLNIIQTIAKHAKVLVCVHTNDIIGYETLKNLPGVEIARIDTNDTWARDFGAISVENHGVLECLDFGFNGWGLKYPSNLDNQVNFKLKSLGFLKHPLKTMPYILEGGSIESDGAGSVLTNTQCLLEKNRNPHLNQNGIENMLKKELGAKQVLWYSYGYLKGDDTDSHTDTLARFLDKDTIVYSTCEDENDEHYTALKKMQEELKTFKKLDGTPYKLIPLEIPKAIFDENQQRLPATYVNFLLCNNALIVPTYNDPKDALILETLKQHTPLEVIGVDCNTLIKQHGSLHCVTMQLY
Nature of the data set: HpAgD activity assay. The settings on record: for ability to serve as HpAgD substrate: known PAD substrates.

Another data set concerns D198A HpAgD. In kind it is biochemical, Helicobacter pylori.
The target of data set [7] is T1, HpAgD. As to the kind of experiment: Metal inhibition of HpAgD. The settings on record: 15 min pre-incubation with metal ion, 5.0 mM agmatine. The class given is biochemical.
For another data set, the system named is N=C(N)NCCCCN. As to the kind of experiment: purified protein, by the assay type. The settings on record: other: steady state, D198A HpAgD; pH 8.0; 37.0 °C.
For data set [8], the target named is Helicobacter pylori agmatine deiminase (HpAgD), untagged wild type (Helicobacter pylori) (UniProt O24890). Nature of the data set: SEC.
Substrate in data set [9]: N=C(N)NCCCCN
As to the kind of experiment: purified protein, by the assay type. The settings on record: other: steady state, Wild Type HpAgD, pH 8.0, 37 °C.

Setting [10] is: read-out: IC50 HpAgD, 15 min pre-incubation, 0.5 mM Agmatine.

The text below walks through data of PMC2823940 (Bioorganic chemistry, 2009).

Entries after “also recorded” stand apart in the source; their conditions may differ.

Sequence of PAD4 (Q9UM07 whole entry): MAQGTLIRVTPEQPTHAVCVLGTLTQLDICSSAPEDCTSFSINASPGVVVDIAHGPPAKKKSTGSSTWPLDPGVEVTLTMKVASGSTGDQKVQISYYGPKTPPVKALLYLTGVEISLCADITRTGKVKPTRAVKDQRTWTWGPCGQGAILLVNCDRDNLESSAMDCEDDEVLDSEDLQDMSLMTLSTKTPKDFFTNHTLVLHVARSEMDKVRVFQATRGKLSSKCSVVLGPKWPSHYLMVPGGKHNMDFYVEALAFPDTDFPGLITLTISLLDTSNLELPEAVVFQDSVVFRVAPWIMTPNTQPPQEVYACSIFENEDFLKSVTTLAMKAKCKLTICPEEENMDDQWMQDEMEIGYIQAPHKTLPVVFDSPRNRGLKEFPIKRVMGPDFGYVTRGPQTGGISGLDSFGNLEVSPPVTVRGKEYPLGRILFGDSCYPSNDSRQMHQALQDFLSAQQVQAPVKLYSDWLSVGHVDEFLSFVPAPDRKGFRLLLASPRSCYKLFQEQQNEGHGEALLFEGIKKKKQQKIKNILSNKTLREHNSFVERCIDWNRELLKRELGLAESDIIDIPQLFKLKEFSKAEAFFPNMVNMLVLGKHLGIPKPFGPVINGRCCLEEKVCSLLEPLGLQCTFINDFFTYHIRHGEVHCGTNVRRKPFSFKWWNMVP

On to `N=C(CCl)NCCCCN` [ABCA, N-(4-aminobutyl)-2-chloro-ethanimidamide], for which, on HpAgD [1], the IC50 (as a rule, the point on the concentration scale where inhibition reaches its midpoint) came out at 0.87 ± 0.03 µM. The “residual activity after dialysis (irreversibility)” value at HpAgD [2] is “enzyme activity was not recovered; also recorded: irreversibly inhibit HpAgD”. Besides, the “stability in aqueous buffer” value in data set [3] was “excellent stability”. Also, on HpAgD [4], the Ki turned out to be 1200 ± 234 µM and the kinact/KI – broadly, the second-order rate constant of inactivation – is 208 M⁻¹ s⁻¹. Also, the site of modification entry on HpAgD [5] is recorded as “modifying Cys324”. The “substrate protection against inactivation” value on HpAgD [6] was “substrate can protect against enzyme inactivation”. Also, at PAD4, the IC50 was above 1 mM and the “inhibition of PAD4” value was “essentially no inhibition was observed”.
Regarding `N=C(CF)NCCCCN` [ABFA, N-(4-aminobutyl)-2-fluoro-ethanimidamide], the IC50 against HpAgD [1] was determined as 6.8 ± 0.26 µM. Moreover, the “residual activity after dialysis (irreversibility)” value at HpAgD [2] was “enzyme activity was not recovered; also recorded: irreversibly inhibit HpAgD”. The “stability in aqueous buffer” value in data set [3] is reported as “excellent stability”. Further, at HpAgD [4], the Ki stood at 530 ± 150 µM and the kinact/KI was 66.7 M⁻¹ s⁻¹. Also, at HpAgD [5], the site of modification result was “modifying Cys324”. For the same molecule, on HpAgD [6], the “substrate protection against inactivation” value is listed as “substrate can protect against enzyme inactivation”. Further, at PAD4, the IC50 was above 1 mM and the “inhibition of PAD4” value is “essentially no inhibition was observed”.
With `NCCCCN=C(N)N` [Agmatine], the “rate (kcat/Km) relative to all other substrates tested” value at Wild Type HpAgD (Wild Type HpAgD) is > 10^4 fold. Also, the kcat (in general, the number of substrate molecules converted per active site and unit of time at saturation) at Wild Type HpAgD (steady state, Wild Type HpAgD, pH 8.0, 37 °C) is listed as ~ 5 min^−1. Also, in the data set on D198A HpAgD, the “decrease in kcat, D198A vs wild type” value stood at 17 fold and the “increase in Km, D198A vs wild type” value was 5 fold.
For the molecule `NC(=O)[C@H](CCCN=C(N)N)NC(=O)c1ccccc1` [BAA, N-α-Benzoyl-L-arginine amide], on Wild Type HpAgD, the “ability to serve as HpAgD substrate” value is “none of these compounds served as a substrate”.
With `CCOC(=O)[C@H](CCCN=C(N)N)NC(=O)c1ccccc1` [BAEE, N-α-Benzoyl-L-arginine ethyl ester], at Wild Type HpAgD, the “ability to serve as HpAgD substrate” value is “none of these compounds served as a substrate”.
In the case of `COC(=O)[C@H](CCCNC(=N)N)NC(=O)c1ccccc1` [BAME, N-α-Benzoyl-L-arginine methyl ester], on Wild Type HpAgD, the “ability to serve as HpAgD substrate” value is recorded as “none of these compounds served as a substrate”.
`NC(=O)[C@H](CCCN=C(N)CCl)NC(=O)c1ccccc1` [Cl-amidine]: the “inhibition of HpAgD” value against HpAgD [1] was “did not afford HpAgD inhibition”. In addition, at HpAgD [1] (setting [10]), the IC50 is above 500 µM.
At HpAgD [7], `[Co+2]` [Co^2+] registered an IC50 of 13 ± 5.5 µM.
With `NC(=O)[C@H](CCCN=C(N)CF)NC(=O)c1ccccc1` [F-amidine], the “inhibition of HpAgD” value against HpAgD [1] is listed as “did not afford HpAgD inhibition”. Also, the IC50 on HpAgD [1] (setting [10]) is above 500 µM.
For `[Ni+2]` [Ni^2+], the IC50 against HpAgD [7] was 100 ± 3.9 µM.
Still for that read-out and setting: next, `[Zn+2]` [Zn^2+]: 30 ± 3 µM.
With “Ac-SGRGK-COO^− (Ac-SGRGK-OH; UniProt P62805 2-6, looked up, fragment) [Ac-H4-5]”, the “ability to serve as HpAgD substrate” value in the data set with Wild Type HpAgD is “none of these compounds served as a substrate”.
For “D198A HpAgD (Helicobacter pylori 26695; D198A)”, in the data set on N=C(N)NCCCCN, the Km – broadly, the substrate concentration at which the rate is half of its maximum – stood at 170 ± 79.8 µM; the kcat amounted to 0.00467 s⁻¹; the kcat/Km (commonly the second-order rate constant that governs catalysis at low substrate concentration) came out at 28.3 M⁻¹ s⁻¹.
With “Helicobacter pylori agmatine deiminase (HpAgD), untagged wild type (from UniProt O24890 1-330) (enzyme)”, the stoichiometry N (in general, the number of molecules, sites or subunits per partner or assembly) in data set [8] is 2.

B1: Wild Type HpAgD (Helicobacter pylori 26695) (protein)
chain: T2 sequence (O24890 1-330)
On to B1, for which, in data set [9], the Km was 33 ± 8.8 µM, the kcat turned out to be 0.0817 s⁻¹ and the kcat/Km came to 2450 M⁻¹ s⁻¹.
